For 29 molecules, remaining activity results are on record in paper PMC8286840, “Identifying SARS-CoV-2 antiviral compounds by screening for small molecule inhibitors of Nsp3 papain-like protease” (Biochemical Journal, 2021).

For experiment [1], the target named is T1, SARS-CoV-2 PLpro (nsp3 1564–1878) (Severe acute respiratory syndrome coronavirus 2, UniProt P0DTD1). As to the kind of experiment: biochemical. Also on record: FRET-quenched peptide (Pro3) cleavage by PLpro, 10 min pre-incubation, slope over 20 min, normalised to no-compound control. As to conditions: high concentration screen, read-out: % of control remaining.

For experiment [2], the target named is T1, SARS-CoV-2 PLpro (nsp3 1564–1878). Description: biochemical. Also on record: FRET-quenched peptide (Pro3) cleavage by PLpro, 10 min pre-incubation, slope over 20 min, normalised to no-compound control. The note with it: low concentration screen, read-out: % of control remaining.

SMILES strings stand for the structures. Counter-ions that a name gives are not always drawn. Like-named read-outs stand apart in the source and are kept apart here.

`Cc1cc(Cc2cc(C)cc(C(C)(C)C)c2O)c(O)c(C(C)(C)C)c1` [GERI-BP002-A]: the remaining activity at 3.75 µM in experiment [1] (Well no.=3701) turned out to be 101%. The remaining activity at 1.25 µM in experiment [2] (Well no.=3701) amounted to 97.3%.

As to `Cc1cc(Cc2cc(C)cc(C(C)(C)C)c2O)c(O)c(C(C)(C)C)c1` [GERI-BP002A], the remaining activity at 3.75 µM in experiment [1] (Well no.=3907) came out at 97.7%. In addition, the remaining activity at 1.25 µM in experiment [2] (Well no.=3907) stood at 104%.

In the case of `CN(C)CCCn1cc(C2=C(c3c[nH]c4ccccc34)C(=O)NC2=O)c2ccccc21` [GF 109203X - 2-[1-(3-Dimethylaminopropyl)indol-3-yl]-3-(indol-3-yl) maleimide], the remaining activity at 3.75 µM in experiment [1] (Well no.=2340) turned out to be 106%. In experiment [2] (Well no.=2340), the remaining activity at 1.25 µM was 103%.

For the molecule `COC(=O)[C@H](CC(C)C)NC(=O)c1ccc(NC[C@@H](N)CS)cc1-c1cccc2ccccc12` [GGTI298 Trifluoroacetate], in experiment [1] (Well no.=8456), the remaining activity at 3.75 µM is 86.9%. For the same molecule, in experiment [2] (Well no.=8456), the remaining activity at 1.25 µM came out at 97.5%.

For the molecule `COC(=O)[C@H](CC(C)C)NC(=O)c1ccc(NC[C@@H](N)CS)cc1-c1cccc2ccccc12` [GGTI298], in experiment [1] (Well no.=8076), the remaining activity at 3.75 µM is 101%. Moreover, the remaining activity at 1.25 µM in experiment [2] (Well no.=8076) is 106%.

For the molecule `CN(C)c1cccc(-c2c3c(=O)n(-c4ccccc4Cl)[nH]c3cc(=O)n2C)c1` [GKT137831], the remaining activity at 3.75 µM in experiment [1] (Well no.=9078) was 89.9%. The remaining activity at 1.25 µM in experiment [2] (Well no.=9078) was determined as 96.8%.

Turning to `N#CN=C(NCCCCCCOc1ccc(Cl)cc1)Nc1ccncc1` [GMX1778 (CHS828)], the remaining activity at 3.75 µM in experiment [1] (Well no.=8486) worked out at 95.9%. Further, the remaining activity at 1.25 µM in experiment [2] (Well no.=8486) was 93.1%.

For the molecule `O=C(NCCO)c1cccc(-c2cc(Nc3ccc(OC(F)(F)F)cc3)ncn2)c1` [GNF-5], in experiment [1] (Well no.=5861), the remaining activity at 3.75 µM was 98.1%. For the same molecule, the remaining activity at 1.25 µM in experiment [2] (Well no.=5861) was 105%.

`O=C1c2cc([N+](=O)[O-])ccc2-n2c1nc1ccccc1c2=O` [GNF-PF-3777]: the remaining activity at 3.75 µM in experiment [1] (Well no.=8414) came out at 78.5%; in experiment [1] (Well no.=8695), 99%. In addition, the remaining activity at 1.25 µM in experiment [2] (Well no.=8414) was 88.1%; in experiment [2] (Well no.=8695), 103%.

Take `O=C(O)CC1CCC2(CC1)CCN(c1cc(OC(F)(F)F)ccc1Cl)CC2` [GPR120-IN-1]: the remaining activity at 3.75 µM in experiment [1] (Well no.=8485) was 96.8%. For the same molecule, the remaining activity at 1.25 µM in experiment [2] (Well no.=8485) came to 104%.

As to `OC[C@H]1O[C@@H](n2cnc3c(N[C@H]4CCC[C@@H]4O)ncnc32)[C@H](O)[C@@H]1O` [GR79236], the remaining activity at 3.75 µM stood at 105% in experiment [1] (Well no.=7817), 93.8% in experiment [1] (Well no.=7852) and 110% in experiment [1] (Well no.=8455). Further, the remaining activity at 1.25 µM in experiment [2] (Well no.=7817) worked out at 105%; in experiment [2] (Well no.=7852), 94.1%; in experiment [2] (Well no.=8455), 108%.

Regarding `COC(=O)N1CCN(C(=O)Cc2ccc(Cl)c(Cl)c2)C(CN2CCCC2)C1` (stereo not drawn) [GR-89696 fumarate], in experiment [1] (Well no.=462), the remaining activity at 3.75 µM turned out to be 99.8%. In addition, the remaining activity at 1.25 µM in experiment [2] (Well no.=462) was found to be 101%.

For the molecule `CC(C)(C)[C@H]1CC[C@H](N(Cc2ccc(C(=O)NCCC(=O)O)cc2)C(=O)Nc2ccc(OC(F)(F)F)cc2)CC1` [GRA Ex-25], in experiment [1] (Well no.=6180), the remaining activity at 3.75 µM was determined as 106%. Moreover, the remaining activity at 1.25 µM in experiment [2] (Well no.=6180) stood at 103%.

With `NCC(=O)N[C@@H](CCCN=C(N)N)C(=O)NCC(=O)N[C@@H](CC(=O)O)C(=O)N[C@@H](CO)C(=O)N1CCC[C@H]1C(=O)O` [GRGDSP (TFA)], the remaining activity at 3.75 µM in experiment [1] (Well no.=7558) stood at 109%. Besides, the remaining activity at 1.25 µM in experiment [2] (Well no.=7558) was 102%.

Regarding `Nc1cccc(-c2cc3c(Oc4cccc(O)c4)ncnc3[nH]2)c1` [GSK3b Inhibitor XII, TWS119], the remaining activity at 3.75 µM in experiment [1] (Well no.=2608) was 95.8%. For the same molecule, the remaining activity at 1.25 µM in experiment [2] (Well no.=2608) worked out at 97.8%.

`CC(C)(C)S(=O)(=O)c1ccc2nccc(Nc3n[nH]c4ccc(F)cc34)c2c1` [GSK583]: the remaining activity at 3.75 µM in experiment [1] (Well no.=6206) was 94.3%. In addition, the remaining activity at 1.25 µM in experiment [2] (Well no.=6206) stood at 101%.

In the case of `COc1cccc(-n2c(=O)[nH]c3cc(Cl)n(-c4ccc(-c5cccc(OC)c5O)cc4)c3c2=O)c1` [GSK621], the remaining activity at 3.75 µM in experiment [1] (Well no.=8626) was 99.7%. Moreover, the remaining activity at 1.25 µM in experiment [2] (Well no.=8626) is 101%.

As for `COC(=O)c1sccc1S(=O)(=O)Nc1ccc(Nc2ccccc2)cc1OC` [GSK0660], the remaining activity at 3.75 µM in experiment [1] (Well no.=5869) came out at 109%. Moreover, the remaining activity at 1.25 µM in experiment [2] (Well no.=5869) was 111%.

On to `CCS(=O)(=O)c1ccc(CC(=O)Nc2cc(Cl)c(-c3ccccc3OC(F)(F)F)c(Cl)c2)cc1` [GSK805], for which the remaining activity at 3.75 µM in experiment [1] (Well no.=8657) is 94.7%. Moreover, the remaining activity at 1.25 µM in experiment [2] (Well no.=8657) was determined as 103%.

In the case of `O=C(NCCS(=O)(=O)c1ccc(C(F)(F)F)cn1)c1ccc(Cl)cc1` [GSK3787], the remaining activity at 3.75 µM in experiment [1] (Well no.=5216) is 95.3%. In addition, the remaining activity at 1.25 µM in experiment [2] (Well no.=5216) was found to be 91.7%.

As for `CC(C)(C)OC(=O)CN(Cc1ccc(Cl)cc1)Cc1ccc([N+](=O)[O-])s1` [GSK4112], the remaining activity at 3.75 µM in experiment [1] (Well no.=5910) was 96%. In addition, the remaining activity at 1.25 µM in experiment [2] (Well no.=5910) amounted to 97.7%.

Regarding `COc1ccc(S(=O)(=O)Nc2c(C)cc(C)cc2C)cc1` [GSK137647A], the remaining activity at 3.75 µM in experiment [1] (Well no.=7757) was found to be 103%. Besides, the remaining activity at 1.25 µM in experiment [2] (Well no.=7757) was 103%.

On to `COc1cccc(Nc2c(C(N)=O)cnc3c(C)cc(S(=O)(=O)c4cccc(C(=O)N(C)C)c4)cc23)c1` [GSK256066], for which the remaining activity at 3.75 µM in experiment [1] (Well no.=5300) amounted to 98.4%. Also, the remaining activity at 1.25 µM in experiment [2] (Well no.=5300) stood at 95.5%.

For `C[C@@H](Oc1cc(-n2cnc3ccc(CN4CCN(C)CC4)cc32)sc1C(N)=O)c1ccccc1C(F)(F)F` [GSK461364], the remaining activity at 3.75 µM in experiment [1] (Well no.=5146) amounted to 103%. The remaining activity at 1.25 µM in experiment [2] (Well no.=5146) is 102%.

`O=C(/C=C/c1ccc(Cl)cc1)N1CCC2(CC1)CN(Cc1ccc(Cl)c(Cl)c1)C(=O)O2` [GSK682753A]: the remaining activity at 3.75 µM in experiment [1] (Well no.=7054) was found to be 101%. Besides, the remaining activity at 1.25 µM in experiment [2] (Well no.=7054) was determined as 107%.

Consider `CCn1c(-c2nonc2N)nc2c(C#CC(C)(C)O)ncc(OC[C@H]3CCCNC3)c21` [GSK690693], for which the remaining activity at 3.75 µM in experiment [1] (Well no.=3041) worked out at 94.4%. Also, in experiment [2] (Well no.=3041), the remaining activity at 1.25 µM was 97.7%.

As to `O=C1NC(=O)/C(=C/c2ccc3nccc(-c4ccncc4)c3c2)S1` [GSK1059615], in experiment [1] (Well no.=5191), the remaining activity at 3.75 µM is 99.2%. Moreover, the remaining activity at 1.25 µM in experiment [2] (Well no.=5191) worked out at 104%.

As for `CCn1cc(-c2ccnc3[nH]c(-c4cccc(CN(C)C)c4)cc23)c(-c2ccc(NC(=O)N(C)C)cc2)n1` [GSK1070916], in experiment [1] (Well no.=5031), the remaining activity at 3.75 µM stood at 99.8%. The remaining activity at 1.25 µM in experiment [2] (Well no.=5031) was determined as 101%.

Turning to `CC(C)c1noc(N2CCC(COc3ccc(-c4ccc(S(C)(=O)=O)cc4)nc3)CC2)n1` [GSK1292263], the remaining activity at 3.75 µM in experiment [1] (Well no.=5106) was 97.1%; in experiment [1] (Well no.=8539) it was 104%. The remaining activity at 1.25 µM in experiment [2] (Well no.=5106) worked out at 93.1%; in experiment [2] (Well no.=8539), 105%.
